These results are taken from ChEMBL document CHEMBL1201862, “PubChem BioAssay data set” (2004).

Assay in all cases: NCI tumour cell line growth inhibition, 48 h
The subject of test [1] is SK-MEL-5.
Test [2] relates to RXF 393.
The test system of test [3] is OVCAR-5.
The subject of test [4] is EKVX.
Test [5] deals with PC-3.
The test system of test [6] is RPMI-8226.
In test [7] the test system is T47D.
Test [8] has as its system SW-620.
The test system of test [9] is UACC-62.
Test [10] relates to ACHN.
Test [11] deals with UO-31.
In test [12] the test system is HOP-62.
Test [13] relates to OVCAR-3.
The subject of test [14] is K562.
Test [15] relates to A498.
The test system of test [16] is BT-549.
The test system of test [17] is IGROV-1.
Test [18] concerns HT-29.
Test [19] deals with HOP-92.

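Five concentrations, 48 hours, 96-well plates. GI50 = concentration required for 50% inhibition of growth.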 Calls of active or inactive are those of the source. Cut-off read from the data, not from the text of the source: active = GI50 up to about 1.1 µM and inactive = higher.

With `CNC(=O)C1OC(n2cnc3c(NCc4cccc(I)c4)nc(Cl)nc32)C(O)C1O` (configuration not stated), the GI50 in test [1] is 12 µM (inactive); in test [2], 10.4 µM (inactive); in test [3] it was 14 µM (inactive); in [4], 13.5 µM (inactive); in test [5], 11.9 µM (inactive); in test [6], 18.9 µM (inactive). Moreover, the GI50 is 15.6 µM (inactive) in test [7]; 14.9 µM (inactive) in [8]; 10.1 µM (inactive) in test [9]; 11.8 µM (inactive) in test [10]; 11.9 µM (inactive) in test [11]; 12.7 µM (inactive) in [12]. For the same molecule, the GI50 in test [13] was 13 µM (inactive); in test [14] it was 12.9 µM (inactive); in test [15], 13.8 µM (inactive); in test [16], 14.1 µM (inactive); in test [17], 14.1 µM (inactive).
In the case of `O=C1Nc2ccc(Br)cc2/C1=N/N1C(=O)C(=O)N(C2CCCCC2)C1=S`, the GI50 in test [1] was 4.34 µM (inactive); in test [2], 10 µM (inactive); in test [3], 9.75 µM (inactive); in [4], 4.98 µM (inactive); in test [5], 3.52 µM (inactive); in test [6], 4.25 µM (inactive). Also, the GI50 was 2.62 µM (inactive) in test [7]; 3.56 µM (inactive) in test [8]; 2.75 µM (inactive) in test [18]; 3.05 µM (inactive) in test [9]; 4.83 µM (inactive) in [10]; 1.51 µM (inactive) in test [11]. The GI50 in test [12] is 2.92 µM (inactive); in test [13], 2.47 µM (inactive); in test [14], 3.69 µM (inactive); in test [19] it was 14.4 µM (inactive); in test [15], 3.76 µM (inactive).
Regarding `O=C(Cn1c2c(c3ccccc31)CCCC2)N1CCCC1`, the GI50 in test [1] was 54.3 µM (inactive); in test [3], > 100 µM (inactive); in test [4], > 100 µM (inactive); in test [5], > 100 µM (inactive); in test [6] it was > 100 µM (inactive); in test [8], > 100 µM (inactive). The GI50 was > 100 µM (inactive) in test [18]; 78.5 µM (inactive) in test [9]; > 100 µM (inactive) in [10]; 38.4 µM (inactive) in test [11]; > 100 µM (inactive) in test [12]; 83.9 µM (inactive) in test [13]. The GI50 is > 10 µM (inactive) in test [14]; > 100 µM (inactive) in [19]; 65 µM (inactive) in [15]; > 100 µM (inactive) in [16]; > 100 µM (inactive) in [17].
With `CCOC(=O)/C(C(=S)NC)=C(/N)N1CCCC1`, the GI50 in test [1], in [2], in [3], in test [4], in test [5] and in test [6] was > 100 µM (inactive) each time. The GI50 in test [7] was > 100 µM (inactive); in test [8] it was > 100 µM (inactive); in test [18] it was > 100 µM (inactive); in test [9], > 100 µM (inactive); in test [10] it was > 100 µM (inactive); in [11] it was 71.6 µM (inactive). The GI50 in [12], in test [13], in test [14], in test [19], in test [15] and in test [17] was > 100 µM (inactive) in each case.
With `CC(C)OC(=O)C1(C(C)C)CCc2ccc(C(=O)CCC(=O)O)cc21` (configuration not stated), the GI50 in test [1], in [2], in test [3], in test [4], in test [5] and in test [6] was > 100 µM (inactive) in each case. Besides, the GI50 in test [7], in [8], in test [18], in test [9], in test [10] and in [11] was > 100 µM (inactive) each time. Also, the GI50 in test [12], in test [14], in test [16] and in [17] was > 100 µM (inactive) throughout.
For `Cn1c(-c2c(C3=CC(=O)N(c4ccccc4)C3=O)c3ccccc3n2C)cc2ccccc21`, the GI50 is > 100 µM (inactive) in [1]; 4.4 µM (inactive) in test [2]; > 100 µM (inactive) in test [3]; 4.51 µM (inactive) in test [4]; > 100 µM (inactive) in [5]; 92.7 µM (inactive) in test [6]. In addition, the GI50 in test [7], in test [8], in test [18], in test [9], in test [10] and in test [11] was > 100 µM (inactive) in each case. Besides, the GI50 is > 100 µM (inactive) in test [12]; > 100 µM (inactive) in [13]; 69.2 µM (inactive) in [14]; > 100 µM (inactive) in test [19]; > 100 µM (inactive) in test [17].
Consider `CC1=C(C#N)C2C(=C(C)N1)C(N)=Nc1ccccc12` (configuration not stated), for which the GI50 was 30 µM (inactive) in test [1]; 38 µM (inactive) in test [2]; 70.5 µM (inactive) in test [3]; 19.1 µM (inactive) in [4]; 29.6 µM (inactive) in [5]; 31.4 µM (inactive) in [7]. The GI50 was 48.1 µM (inactive) in test [8]; 38.3 µM (inactive) in [18]; 25.8 µM (inactive) in test [9]; 47.6 µM (inactive) in test [10]; 67.3 µM (inactive) in test [12]; 28.4 µM (inactive) in test [13]. Also, the GI50 was 12.1 µM (inactive) in test [19], 22.3 µM (inactive) in test [15] and 29.9 µM (inactive) in test [17].
For the molecule `CN(C)/N=C1/CCC(C(F)(F)F)(C(F)(F)F)O1`, the GI50 in [1] was 21.9 µM (inactive); in test [2], 32.6 µM (inactive); in test [3], 58.1 µM (inactive); in test [4] it was 36.9 µM (inactive); in test [5], 28.9 µM (inactive); in test [6], 31.5 µM (inactive). The GI50 in test [7] is 33.2 µM (inactive); in test [8], 40.6 µM (inactive); in [18], 41.8 µM (inactive); in test [9] it was 28.1 µM (inactive); in test [10], 35.6 µM (inactive); in test [11], 28.4 µM (inactive). For the same molecule, the GI50 in test [12] is 31.4 µM (inactive); in test [13], 18.5 µM (inactive); in test [14], 40.7 µM (inactive); in test [19] it was 32.7 µM (inactive); in [15], 21.4 µM (inactive); in test [17] it was 31.2 µM (inactive).
Regarding `CC(C)(NC1=NCCO1)c1ccccc1`, the GI50 in test [1], in [2], in test [3], in test [4], in test [5] and in test [6] was > 100 µM (inactive) in each case. Moreover, the GI50 in [7], in test [8], in test [18], in test [9], in test [10] and in [11] was > 100 µM (inactive) each time. Moreover, the GI50 in test [12], in [13], in test [19], in [15] and in test [17] was > 100 µM (inactive) throughout.
With `CN(Cc1cnc2nc(N)nc(N)c2n1)c1ccc(C(=O)NC23CC4CC(CC(C4)C2)C3)cc1`, the GI50 in test [1] is 4.19 µM (inactive); in test [2] it was 17.1 µM (inactive); in test [3], 12.2 µM (inactive); in test [4], 13.2 µM (inactive); in test [5], 4.58 µM (inactive); in [6], 22 µM (inactive). In addition, the GI50 in test [7] is 15.9 µM (inactive); in test [8] it was 7.33 µM (inactive); in test [9] it was 3.66 µM (inactive); in test [10], 3.13 µM (inactive); in test [11] it was 11.8 µM (inactive); in test [12] it was 12.6 µM (inactive). Also, the GI50 is 16.9 µM (inactive) in test [13]; 1.06 µM (active) in test [14]; 53.6 µM (inactive) in [15]; 11.8 µM (inactive) in [16]; 5.9 µM (inactive) in [17].
Turning to `COc1ccc(/N=c2/[nH]c(N)c(C(=O)c3ccc(OC)cc3)s2)cc1`, the GI50 was 0.381 µM (active) in test [1]; 0.324 µM (active) in [2]; 15.3 µM (inactive) in test [3]; 17.3 µM (inactive) in test [4]; 0.284 µM (active) in test [5]; 0.164 µM (active) in [6]. Moreover, the GI50 in test [7] is 18.7 µM (inactive); in [8] it was 0.273 µM (active); in test [18], 0.316 µM (active); in [9], 0.481 µM (active); in [11], 0.468 µM (active); in test [13], 0.255 µM (active). The GI50 in test [14] was 0.0492 µM (active); in test [19], 25.1 µM (inactive); in test [15], 0.46 µM (active); in test [17], 0.471 µM (active).
Take `O=c1[nH]c(=O)n([C@@H]2O[C@H](CO)[C@@H](O)[C@@H]2F)cc1I` [FIALURIDINE]: the GI50 in test [1] is > 100 µM (inactive); in test [2], 54.1 µM (inactive); in test [3] it was > 100 µM (inactive); in [4], > 100 µM (inactive); in [7], > 100 µM (inactive); in test [8], > 100 µM (inactive). Also, the GI50 in test [18], in test [9], in test [10], in test [11], in test [12] and in test [13] was > 100 µM (inactive) throughout. Moreover, the GI50 in test [14] was > 100 µM (inactive); in [19], > 100 µM (inactive); in test [15], 59.4 µM (inactive); in test [16] it was 39.2 µM (inactive); in [17], > 100 µM (inactive).
